In patent US11193004B2, “Phosphoric ester preparations with reduced hygroscopicity” (LANXESS Deutschland GmbH, priority 2013, dated 2021):

Legend:
[1] = Solubility in water of phosphoric esters b)
physchem = conditions: 25 °C, water

Molecule | Solubility in water at 25° C. [1] | solubility (physchem) [µg/mL]
O=P(OC(CCl)CCl)(OC(CCl)CCl)OC(CCl)CCl [TDCP, Tris(2,3-dichloroisopropyl) phosphate] | 100 µg/mL | 
CCOP(=O)(OCC)OCC [TEP, Triethyl phosphate] | miscible | > 3000
Diphenyl cresyl phosphate [DPC] | 2.6 µg/mL | 
Isopropylated triphenyl phosphate [IPP] | 0.33 µg/mL | 
